# Data: patent US9409905B2, “Antibacterial compounds and methods for use” (PTC THERAPEUTICS, INC., priority 2011, dated 2016)
# Experiments:
# E. coli 25922 = assay: Antibacterial activity, microbroth dilution MIC (Table 1); format: cell-based, Escherichia coli; details: Escherichia coli; microbroth dilution; control Gram-negative E. coli 25922 strain; read-out: MIC, 25922
# Summary of the method: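 Growth inhibition by microbroth dilution. MIC = lowest μg/mL with no visible growth. Strain 25922 is the control Gram-negative; BAS849 is hypersensitive.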
# E. coli LZ3111 = assay: Antibacterial activity, MIC, quinolone resistant strain (Table 2); format: cell-based; details: Escherichia coli, LZ3111, read-out: MIC LZ3111
# Summary of the method: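 Broth microdilution. Read-out: MIC in μg/mL, taken as lowest concentration with no macroscopically visible growth.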
# [1] = tested on: Staphylococcus aureus (S. aureus) 29213; assay: Antibacterial activity, microbroth dilution MIC (Table 1); format: cell-based; details: microbroth dilution, Gram-positive S. aureus 29213, read-out: MIC, 29213
# Summary of the method: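 Read-out: visual absence of growth. The lowest concentration meeting this gives the MIC, expressed in μg/mL, with microbroth dilution as the method.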
# [2] = tested on: Escherichia coli (E. coli) BAS849; assay: as above; format: cell-based; details: microbroth dilution, super sensitive Gram-negative E. coli BAS849, read-out: MIC, BAS849
# Summary of the method: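 MIC (μg/mL) is taken as the lowest concentration with no macroscopically visible growth. Strains tested by microbroth dilution: Gram-positive S. aureus 29213, control Gram-negative E. coli 25922, and super-sensitive E. coli BAS849.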
# [3] = tested on: Acinetobacter baumannii (A. baumannii) BAA747; assay: Antibacterial activity, MIC (Table 4); format: cell-based; details: A. baumannii BAA747, read-out: MIC, BAA747
# Description: (§1) The antibacterial activity from a microbroth dilution method may be presented as the minimum inhibitory concentration (MIC in μg/mL). The MIC value is the lowest concentration of drug which prevents macroscopically visible growth under test conditions.
# (§2) Antibacterial activity of test compounds against the Gram-negative Acinetobacter baumannii (A. baumannii) BAA747 and Klebsiella pneumoniae (K. pneumoniae) 35657 bacterium and the resistant A. baumannii MXX2240 and K. pneumoniae MXX1232 strains are shown in Table 4. The MMX strains are multi-drug resistant clinical isolates.
# [4] = tested on: Klebsiella pneumoniae (K. pneumoniae) 35657; assay: Antibacterial activity, MIC (Table 4); format: cell-based; details: K. pneumoniae 35657, read-out: MIC, 35657
# Description: as §1, §2
# [5] = tested on: Pseudomonas aeruginosa (P. aeruginosa) 27853; assay: Antibacterial activity, MIC (Table 5); format: cell-based; details: P. aeruginosa 27853, read-out: MIC, 27853
# Description: as §1
# Antibacterial activity of test compounds against the Gram-negative bacterium Pseudomonas aeruginosa (P. aeruginosa) 27853 is shown in Table 5.
# K. pneumoniae MXX1232 = assay: Antibacterial activity, MIC, resistant strain (Table 4); format: cell-based; details: Klebsiella pneumoniae, MXX1232; resistant K. pneumoniae MMX1232, multi-drug resistant clinical isolate; read-out: MIC, MMX1232
# Description: as §1, §2
# A. baumannii MXX2240 = assay: as above; format: cell-based; details: Acinetobacter baumannii, MXX2240; resistant A. baumannii MMX2240, multi-drug resistant clinical isolate; read-out: MIC, MMX2240
# Description: as §1, §2
SMILES,MIC (E. coli 25922) [µg/mL],MIC (E. coli LZ3111) [µg/mL],MIC [1] [µg/mL],MIC [2] [µg/mL],MIC [3] [µg/mL],MIC [4] [µg/mL],MIC [5] [µg/mL],MIC (K. pneumoniae MXX1232) [µg/mL],MIC (A. baumannii MXX2240) [µg/mL]
"CCc1c(-c2cn(C)c3ccccc23)[nH]c(=O)c(C(=O)O)c1O [Cpd 14, 5-ethyl-4-hydroxy-6-(1-methyl-1H-indol-3-yl)-2-oxo-1,2-dihydropyridine-3-carboxylic acid]",12.5 to 150,12.5 to 150,3.5 to 12.5,1 to 3.5,12.5 to 150,12.5 to 150,12.5 to 150,12.5 to 150,12.5 to 150
"CCc1cc(C(=O)O)c(=O)[nH]c1-c1cnc2c(ccn2C)c1 [Cpd 31, 5-ethyl-6-(1-methyl-1H-pyrrolo[2,3-b]pyridin-5-yl)-2-oxo-1,2-dihydropyridine-3-carboxylic acid]",12.5 to 150,12.5 to 150,12.5 to 150,1 to 3.5,12.5 to 150,12.5 to 150,12.5 to 150,12.5 to 150,12.5 to 150
"CCc1cc(C(=O)O)c(=O)[nH]c1-c1ccc2ncnn2c1.Cl [Cpd 49, 6-([1,2,4]triazolo[1,5-a]pyridin-6-yl)-5-ethyl-2-oxo-1,2-dihydropyridine-3-carboxylic acid hydrochloride]",12.5 to 150,12.5 to 150,12.5 to 150,12.5 to 150,12.5 to 150,12.5 to 150,12.5 to 150,12.5 to 150,12.5 to 150
"CCc1cc(C(=O)O)c(=O)[nH]c1-c1ccc2nncn2c1.Cl [Cpd 50, 6-([1,2,4]triazolo[4,3-a]pyridin-6-yl)-5-ethyl-2-oxo-1,2-dihydropyridine-3-carboxylic acid hydrochloride]",12.5 to 150,12.5 to 150,12.5 to 150,12.5 to 150,12.5 to 150,12.5 to 150,12.5 to 150,12.5 to 150,12.5 to 150
"CCc1cc(C(=O)O)c(=O)[nH]c1-c1ccc2nccn2c1.Cl [Cpd 51, 5-ethyl-6-(imidazo[1,2-a]pyridin-6-yl)-2-oxo-1,2-dihydropyridine-3-carboxylic acid hydrochloride]",12.5 to 150,12.5 to 150,12.5 to 150,12.5 to 150,12.5 to 150,12.5 to 150,12.5 to 150,12.5 to 150,12.5 to 150
"CCc1cc(C(=O)O)c(=O)[nH]c1-c1cnc2c(c1)ncn2C [Cpd 52, 5-ethyl-6-(3-methyl-3H-imidazo[4,5-b]pyridin-6-yl)-2-oxo-1,2-dihydropyridine-3-carboxylic acid]",12.5 to 150,12.5 to 150,12.5 to 150,12.5 to 150,12.5 to 150,12.5 to 150,12.5 to 150,12.5 to 150,12.5 to 150
"CCc1cc(C(=O)O)c(=O)[nH]c1-c1ccc2c(c1)ncn2C [Cpd 53, 5-ethyl-6-(1-methyl-1H-benzo[d]imidazol-5-yl)-2-oxo-1,2-dihydropyridine-3-carboxylic acid]",12.5 to 150,12.5 to 150,12.5 to 150,3.5 to 12.5,12.5 to 150,12.5 to 150,12.5 to 150,12.5 to 150,12.5 to 150
"CCc1cc(C(=O)O)c(=O)[nH]c1-c1ccc2c(c1)cc(CN(C)Cc1ccccc1)n2C [Cpd 121, 6-(2-((benzyl(methyl)amino)methyl)-1-methyl-1H-indol-5-yl)-5-ethyl-2-oxo-1,2-dihydropyridine-3-carboxylic acid]",1 to 3.5,12.5 to 150,3.5 to 12.5,< 1,1 to 3.5,3.5 to 12.5,12.5 to 150,12.5 to 150,12.5 to 150
"CCc1cc(C(=O)O)c(=O)[nH]c1-c1ccc2c(c1)cc(CN(CC)CC)n2C [Cpd 123, 6-(2-((diethylamino)methyl)-1-methyl-1H-indol-5-yl)-5-ethyl-2-oxo-1,2-dihydropyridine-3-carboxylic acid]",< 1,12.5 to 150,12.5 to 150,< 1,1 to 3.5,< 1,12.5 to 150,12.5 to 150,12.5 to 150
"CCc1cc(C(=O)O)c(=O)[nH]c1-c1ccc2c(c1)cc(CN1CCOCC1)n2C [Cpd 137, 5-ethyl-6-(1-methyl-2-(morpholinomethyl)-1H-indol-5-yl)-2-oxo-1,2-dihydropyridine-3-carboxylic acid]",1 to 3.5,12.5 to 150,12.5 to 150,< 1,3.5 to 12.5,1 to 3.5,12.5 to 150,12.5 to 150,12.5 to 150
"CCc1cc(C(=O)O)c(=O)[nH]c1-c1ccc2c(c1)cc(CN1CCN(C)CC1)n2C [Cpd 140, 5-ethyl-6-(1-methyl-2-((4-methylpiperazin-1-yl)methyl)-1H-indol-5-yl)-2-oxo-1,2-dihydropyridine-3-carboxylic acid]",1 to 3.5,12.5 to 150,12.5 to 150,< 1,3.5 to 12.5,1 to 3.5,12.5 to 150,12.5 to 150,12.5 to 150
"CCc1cc(C(=O)O)c(=O)[nH]c1-c1ccc2c(c1)cc1n2CCC1N1CCCCC1 (stereo not drawn) [Cpd 154, 5-ethyl-2-oxo-6-(1-(piperidin-1-yl)-2,3-dihydro-1H-pyrrolo[1,2-a]indol-7-yl)-1,2-dihydropyridine-3-carboxylic acid]",1 to 3.5,12.5 to 150,12.5 to 150,< 1,3.5 to 12.5,1 to 3.5,12.5 to 150,12.5 to 150,12.5 to 150
"CC(C)c1c(-c2ccc3c(c2)cc(CN(C)C)n3C)[nH]c(=O)c(C(=O)O)c1O [Cpd 318, 6-(2-((dimethylamino)methyl)-1-methyl-1H-indol-5-yl)-4-hydroxy-5-isopropyl-2-oxo-1,2-dihydropyridine-3-carboxylic acid]",1 to 3.5,12.5 to 150,12.5 to 150,< 1,12.5 to 150,3.5 to 12.5,12.5 to 150,12.5 to 150,12.5 to 150
"CN(C)Cc1cc2cc(-c3[nH]c(=O)c(C(=O)O)c(O)c3C3CC3)ccc2n1C [Cpd 322, 5-cyclopropyl-6-(2-((dimethylamino)methyl)-1-methyl-1H-indol-5-yl)-4-hydroxy-2-oxo-1,2-dihydropyridine-3-carboxylic acid]",12.5 to 150,12.5 to 150,12.5 to 150,1 to 3.5,12.5 to 150,12.5 to 150,12.5 to 150,12.5 to 150,12.5 to 150
